# In patent US20230117034A1, “PYRAZOLOTRIAZINES” (Bayer Aktiengesellschaft, priority 2019, published 2023):
# Assays:
# Format in all cases: cell-based
# [1] = test system: MDA-MB-231, human breast cancer cells; assay: Proliferation assay MDA-MB-231 (crystal violet, 4 days); details: Homo sapiens, MDA-MB-231, 96 h, MDA-MB-231 cells, median, read-out: Prolif-MDA MB-231, IC50-[mol/l] (median)
# How it was run: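 Cells seeded at 4,000/well in medium with 10% FCS; after 24 h, compounds added at 0.01-10 µmol/L (0.1% DMSO) for 4 days. Glutaraldehyde-fixed, crystal violet-stained, absorbance at 595 nm normalized to zero-point plate (0%) and untreated cells (100%); IC50 by 4-parameter fit.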
# [2] = biological target: T1, CDK12 (nuclear staining in CAL-120 cells) (Homo sapiens, UniProt Q9NYV4); assay: CDK12 nuclear protein level: immunofluorescence/high content analysis (CAL-120); details: for DC50: CAL-120 cells, 24 h, immunofluorescence, 50% reduction of nuclear CDK12 staining intensity, median, read-out: CDK12 degradation IF, DC50- [mol/l] (median); for (IC50 CDK12 high ATP) to (Degradation DC50 CDK12) ratio: ratio of IC50 CDK12 high ATP kinase assay to DC50 CDK12 degradation (IF, CAL-120)
# T1 construct: endogenous in cells; host or cells: CAL-120 human breast cancer cells (DSMZ ACC 459)
# How it was run: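 CAL-120 cells were treated with compound for 24 h at 37 °C, fixed with PFA and immunostained for CDK12. Nuclear CDK12 intensity was quantified by automated image analysis and normalized to DMSO and control. DC50 is the concentration giving 50% reduction of nuclear staining.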
# [3] = biological target: T2, CYCLIN K (nuclear staining in CAL-120 cells) (Homo sapiens, UniProt O75909); assay: CYCLIN K nuclear protein level: immunofluorescence high content analysis (CAL-120); details: 24 h, 50% reduction of nuclear CCNK staining intensity, median, read-out: CYCLIN K degradation IF, DC50-[mol/l] (median)
# T2 construct: endogenous in cells; host or cells: CAL-120 human breast cancer cells (DSMZ ACC 459)
# How it was run: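 CAL-120 breast cancer cells treated in dose-response for 24 h at 37 °C, PFA-fixed and immunostained for cyclin K with Hoechst counterstain. Confocal imaging quantified nuclear intensity; DC50 is the concentration giving 50% reduction of nuclear CCNK staining, normalized to DMSO and control.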
# T1 sequence (Q9NYV4 whole entry): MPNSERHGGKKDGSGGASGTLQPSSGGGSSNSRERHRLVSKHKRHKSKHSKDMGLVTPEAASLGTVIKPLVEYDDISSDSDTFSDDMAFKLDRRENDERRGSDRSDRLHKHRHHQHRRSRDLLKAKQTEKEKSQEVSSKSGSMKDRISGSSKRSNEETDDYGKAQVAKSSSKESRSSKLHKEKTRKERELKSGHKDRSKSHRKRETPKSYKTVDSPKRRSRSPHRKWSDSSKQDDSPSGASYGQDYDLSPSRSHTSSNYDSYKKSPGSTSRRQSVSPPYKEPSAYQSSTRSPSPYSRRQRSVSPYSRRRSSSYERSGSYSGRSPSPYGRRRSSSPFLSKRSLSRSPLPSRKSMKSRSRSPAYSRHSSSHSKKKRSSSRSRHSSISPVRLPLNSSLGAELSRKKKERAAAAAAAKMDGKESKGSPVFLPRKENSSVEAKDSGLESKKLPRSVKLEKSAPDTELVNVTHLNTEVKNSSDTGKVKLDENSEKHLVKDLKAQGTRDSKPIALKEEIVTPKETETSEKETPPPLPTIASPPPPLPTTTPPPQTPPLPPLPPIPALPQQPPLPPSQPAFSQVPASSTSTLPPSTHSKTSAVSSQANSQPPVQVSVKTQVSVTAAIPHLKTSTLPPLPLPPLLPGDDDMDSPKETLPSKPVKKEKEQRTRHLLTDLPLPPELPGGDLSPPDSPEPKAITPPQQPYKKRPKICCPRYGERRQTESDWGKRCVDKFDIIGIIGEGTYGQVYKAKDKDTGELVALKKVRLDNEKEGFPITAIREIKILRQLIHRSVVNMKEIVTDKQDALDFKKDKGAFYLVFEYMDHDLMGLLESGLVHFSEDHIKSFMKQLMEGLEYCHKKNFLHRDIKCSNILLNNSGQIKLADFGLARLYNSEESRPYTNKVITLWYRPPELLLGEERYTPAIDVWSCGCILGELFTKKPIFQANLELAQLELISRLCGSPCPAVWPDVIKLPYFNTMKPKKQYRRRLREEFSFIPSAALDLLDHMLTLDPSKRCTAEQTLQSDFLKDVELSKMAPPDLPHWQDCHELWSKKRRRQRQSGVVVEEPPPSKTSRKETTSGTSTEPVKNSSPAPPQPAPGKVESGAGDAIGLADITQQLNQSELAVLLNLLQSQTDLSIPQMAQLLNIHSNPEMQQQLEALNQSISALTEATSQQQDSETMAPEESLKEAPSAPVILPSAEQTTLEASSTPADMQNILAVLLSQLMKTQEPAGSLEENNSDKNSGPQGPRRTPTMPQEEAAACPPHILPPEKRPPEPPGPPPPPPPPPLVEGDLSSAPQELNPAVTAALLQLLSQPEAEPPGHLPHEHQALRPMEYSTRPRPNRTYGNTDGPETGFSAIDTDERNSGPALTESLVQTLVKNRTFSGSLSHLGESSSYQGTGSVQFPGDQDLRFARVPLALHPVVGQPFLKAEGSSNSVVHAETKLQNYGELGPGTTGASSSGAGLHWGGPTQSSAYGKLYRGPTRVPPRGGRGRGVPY
# T1 sequence (O75909 whole entry partner): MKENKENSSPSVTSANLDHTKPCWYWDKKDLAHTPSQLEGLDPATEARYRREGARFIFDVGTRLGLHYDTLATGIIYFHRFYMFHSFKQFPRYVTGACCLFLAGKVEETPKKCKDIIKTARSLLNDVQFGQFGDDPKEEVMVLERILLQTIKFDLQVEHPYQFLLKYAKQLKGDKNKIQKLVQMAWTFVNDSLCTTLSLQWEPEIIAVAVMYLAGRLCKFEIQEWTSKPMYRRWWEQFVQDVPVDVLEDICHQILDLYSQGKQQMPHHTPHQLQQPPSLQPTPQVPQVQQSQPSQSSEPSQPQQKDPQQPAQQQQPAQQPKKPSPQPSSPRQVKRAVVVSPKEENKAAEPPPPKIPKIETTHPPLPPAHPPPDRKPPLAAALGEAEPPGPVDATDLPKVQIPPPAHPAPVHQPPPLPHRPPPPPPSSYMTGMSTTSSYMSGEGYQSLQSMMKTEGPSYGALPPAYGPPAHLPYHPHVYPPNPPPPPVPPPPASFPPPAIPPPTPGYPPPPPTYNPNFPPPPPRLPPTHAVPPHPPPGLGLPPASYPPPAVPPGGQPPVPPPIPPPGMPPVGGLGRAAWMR
# T2 sequence (O75909 whole entry): as the sequence (O75909 whole entry partner) above
# T2 sequence (Q9NYV4 whole entry partner): as the sequence (Q9NYV4 whole entry) above
Structure (SMILES),IC50 [1] [nM],DC50 [2] [nM],(IC50 CDK12 high ATP) to (Degradation DC50 CDK12) ratio [2],DC50 [3] [nM]
"CN1CCN(c2nc(NCc3nc4ccccc4[nH]3)n3ncc(C(F)(F)F)c3n2)CC1 [Example 297, N-[(1H-benzimidazol-2-yl)methyl]-2-(4-methylpiperazin-1-yl)-8-(trifluoromethyl)pyrazolo[1,5-a][1,3,5]triazin-4-amine]",77.7,7.59,2294,0.679
"NC1CCN(c2nc(NCc3nc4ccccc4[nH]3)n3ncc(Br)c3n2)CC1 [Example 256, 2-(4-aminopiperidin-1-yl)-N-[(1H-benzimidazol-2-yl)methyl]-8-bromopyrazolo[1,5-a][1,3,5]triazin-4-amine]",12.6,3.53,>5662,0.326
"Fc1ccc2[nH]c(CNc3nc(N4CCOCC4)nc4c(C5CC5(F)F)cnn34)nc2c1 (racemic) [Example 286, 8-[(1RS)-2,2-difluorocyclopropyl]-N-[(5-fluoro-1H-benzimidazol-2-yl)methyl]-2-(morpholin-4-yl)pyrazolo[1,5-a][1,3,5]triazin-4-amine]",20,5.38,2107,1.89
"CN1CCN(c2nc(NCc3nc4ccccc4[nH]3)n3ncc(C4CC4)c3n2)CC1 [Example 246, N-[(1H-benzimidazol-2-yl)methyl]-8-cyclopropyl-2-(4-methylpiperazin-1-yl)pyrazolo[1,5-a][1,3,5]triazin-4-amine]",121,3,>4287,1.02
"N[C@@H]1CCN(c2nc(NCc3nc4ccccc4[nH]3)n3ncc(Br)c3n2)C1 [Example 250, 2-[(3R)-3-aminopyrrolidin-1-yl]-N-[(1H-benzimidazol-2-yl)methyl]-8-bromopyrazolo[1,5-a][1,3,5]triazin-4-amine]",34.4,3.16,3560,0.407
"Fc1ccc2[nH]c(CNc3nc(N4CCOCC4)nc4c(C5CC5(F)F)cnn34)nc2c1 (single isomer, unassigned) [Example 314, 8-[(1R or S)-2,2-difluorocyclopropyl]-N-[(5-fluoro-1H-benzimidazol-2-yl)methyl]-2-(morpholin-4-yl)pyrazolo[1,5-a][1,3,5]triazin-4-amine]",31.3,8.47,1171,1.11
"c1ccc2[nH]c(CNc3nc(N4CCOCC4)nc4c(C5CCC5)cnn34)nc2c1 [Example 263, N-[(1H-benzimidazol-2-yl)methyl]-8-cyclobutyl-2-(morpholin-4-yl)pyrazolo[1,5-a][1,3,5]triazin-4-amine]",73.2,23.4,294,1.82
"Fc1ccc2[nH]c(CNc3nc(N4CCOCC4)nc4c(C5CCC5)cnn34)nc2c1F [Example 264, 8-cyclobutyl-N-[(4,5-difluoro-1H-benzimidazol-2-yl)methyl]-2-(morpholin-4-yl)pyrazolo[1,5-a][1,3,5]triazin-4-amine]",23,3.55,627,1.8
"OCC1CN(c2nc(NCc3nc4ccccc4[nH]3)n3ncc(Br)c3n2)C1 [Example 304, [1-(4-{[(1H-benzimidazol-2-yl)methyl]amino}-8-bromopyrazolo[1,5-a][1,3,5]triazin-2-yl)azetidin-3-yl]methanol]",299,74.6,167,12.4
"CN[C@H]1CCN(c2nc(NCc3nc4ccccc4[nH]3)n3ncc(Br)c3n2)C1 [Example 252, N-[(1H-benzimidazol-2-yl)methyl]-8-bromo-2-[(3S)-3-(methylamino)pyrrolidin-1-yl]pyrazolo[1,5-a][1,3,5]triazin-4-amine]",30.6,1.17,>17030,2.42
"Fc1ccc2[nH]c(CNc3nc(N4CCOCC4)nc4c(C5CCCC5)cnn34)nc2c1F [Example 262, 8-cyclopentyl-N-[(4,5-difluoro-1H-benzimidazol-2-yl)methyl]-2-(morpholin-4-yl)pyrazolo[1,5-a][1,3,5]triazin-4-amine]",101,11.4,>500,1.94
"Brc1cnn2c(NCc3ncc(-c4ccccc4)[nH]3)nc(N3CCOCC3)nc12 [Example 23, 8-bromo-2-(morpholin-4-yl)-N-[(5-phenyl-1H-imidazol-2-yl)methyl]pyrazolo[1,5-a][1,3,5]triazin-4-amine]",33.9,3.45,452,1.02
"Brc1cnn2c(NCc3nc4ccccc4[nH]3)nc(N3C[C@H]4CNC[C@H]4C3)nc12 [Example 283, N-[(1H-benzimidazol-2-yl)methyl]-8-bromo-2-[(3aR,6aS)-hexahydropyrrolo[3,4-c]pyrrol-2(1H)-yl]pyrazolo[1,5-a][1,3,5]triazin-4-amine]",35,6.97,2630,0.367
"Cc1ccnc2[nH]c(CNc3nc(N4CCOCC4)nc4c(Br)cnn34)nc12 [Example 20, 8-bromo-N-[(7-methyl-3H-imidazo[4,5-b]pyridin-2-yl)methyl]-2-(morpholin-4-yl)pyrazolo[1,5-a][1,3,5]triazin-4-amine]",31,2.57,681,1.35

# Compounds with a lower IC50 [1], results first:
IC50 [1] [nM],DC50 [2] [nM],(IC50 CDK12 high ATP) to (Degradation DC50 CDK12) ratio [2],DC50 [3] [nM],Structure (SMILES)
7.75,4.37,270,0.59,"Clc1cc2nc(CNc3nc(N4CCOCC4)nc4c(C5CC5)cnn34)[nH]c2cc1Cl [Example 301, 8-cyclopropyl-N-[(5,6-dichloro-1H-benzimidazol-2-yl)methyl]-2-(morpholin-4-yl)pyrazolo[1,5-a][1,3,5]triazin-4-amine]"
9.43,1.9,1120,0.756,"Fc1ccc2[nH]c(CNc3nc(N4CCOCC4)nc4c(CC(F)(F)F)cnn34)nc2c1F [Example 268, N-[(4,5-difluoro-1H-benzimidazol-2-yl)methyl]-2-(morpholin-4-yl)-8-(2,2,2-trifluoroethyl)pyrazolo[1,5-a][1,3,5]triazin-4-amine]"
6.74,0.881,64,3.21,"Fc1cccc2[nH]c(CNc3nc(N4CCOCC4)nc4c(C(F)(F)F)cnn34)nc12 [Example 274, N-[(4-fluoro-1H-benzimidazol-2-yl)methyl]-2-(morpholin-4-yl)-8-(trifluoromethyl)pyrazolo[1,5-a][1,3,5]triazin-4-amine]"
7.05,0.878,758,0.643,"CN(CC(C)(C)O)c1nc(NCc2nc3c(F)c(F)ccc3[nH]2)n2ncc(C3CC3)c2n1 [Example 292, 1-[(8-cyclopropyl-4-{[(4,5-difluoro-1H-benzimidazol-2-yl)methyl]amino}pyrazolo[1,5-a][1,3,5]triazin-2-yl)(methyl)amino]-2-methylpropan-2-ol]"
4.22,3.51,387,0.516,"Fc1cc2nc(CNc3nc(N4CCOCC4)nc4c(C5CC5)cnn34)[nH]c2cc1F [Example 318, 8-cyclopropyl-N-[(5,6-difluoro-1H-benzimidazol-2-yl)methyl]-2-(morpholin-4-yl)pyrazolo[1,5-a][1,3,5]triazin-4-amine]"
11.9,–,557,1.66,"FC(F)(F)Cc1cnn2c(NCc3nc4cc(Cl)c(Cl)cc4[nH]3)nc(N3CCOCC3)nc12 [Example 302, N-[(5,6-dichloro-1H-benzimidazol-2-yl)methyl]-2-(morpholin-4-yl)-8-(2,2,2-trifluoroethyl)pyrazolo[1,5-a][1,3,5]triazin-4-amine]"
8.53,7.77,822,0.484,"FC(F)(F)Cc1cnn2c(NCc3nc4cc(Cl)ccc4[nH]3)nc(N3CCOCC3)nc12 [Example 299, N-[(5-chloro-1H-benzimidazol-2-yl)methyl]-2-(morpholin-4-yl)-8-(2,2,2-trifluoroethyl)pyrazolo[1,5-a][1,3,5]triazin-4-amine]"
